One block for each molecule: values may come before it. The source made the active and inactive calls. The calls are words filed in the database; no cut-off is given here.
Assays:
Liver = assay: Drug level in human liver microsomes treated with 2-(4-(5-(trifluoromethyl)pyridin-2-yloxy)benzyloxy)phenylboronic acid at 500 uM after 60 mins in presence of [13C2,15N-Gly]GSH and NADPH generating system by LC-MS/MS analysis; assay type: ADME, microsome; conditions: 1 h
[1] = Metabolic stability in rat liver microsomes assessed as parent compound remaining at 1 uM after 30 mins in presence of NADPH generating system by LC-MS/MS analysis; assay type: ADME, microsome; conditions: read-out: Stability
Rattus norvegicus [2] = assay: Antilipolytic activity in Wistar rat assessed as reduction in plasma glycerol AUC (0 to 7 hrs) at 3 mg/kg, po relative to control; assay type: functional; set-up: scale not given: the % may be the effect or the level left
[3] = Cmax in Wistar rat at 3 mg/kg, po by LC-MS/MS analysis; assay type: ADME, organism-based; set-up: dose 3 mg/kg, route oral; conditions: in vivo
[4] = AUC (0 to 7 hrs) in Wistar rat at 3 mg/kg, po by LC-MS/MS analysis; assay type: ADME, organism-based; set-up: dose 3 mg/kg, time < 7 hr, route oral; conditions: in vivo
Rattus norvegicus [5] = assay: Antilipolytic activity in Wistar rat assessed as reduction in plasma glycerol AUC (0 to 7 hrs) at 10 mg/kg, po; assay type: functional, organism-based

Drug metabolism (Liver): Metabolite_Detected
Compound: O=C(O)CNC(=O)C1CSC(c2ccc(Oc3ccc(C(F)(F)F)cn3)cc2)N1 (stereo unspecified)

remaining at 0.5 h, 1 µM [1]: 81% | Cmax [3]: 3350 ng/mL | AUC(0-t) at 7 h [4]: 19600 ng·h/mL
Compound: O=C(Nc1ccc(Cl)cc1B(O)O)c1ccc(Oc2ccc(C(F)(F)F)cc2)nc1
Activity (Rattus norvegicus [2]): 17%

Compound: O=C(Oc1ccc(Oc2ccc(C(F)(F)F)cn2)cc1)N1CCC(O)CC1
Activity (Rattus norvegicus [5]): Active
